Results from ChEMBL document CHEMBL5338768, “Discovery of PMSA Derivative 11 as a Novel Lead Compound for Therapeutic Treatment of Osteoporosis In Vitro and In Vivo” (J Med Chem, 2023).
The source made the active and inactive calls. No cut-off for these calls is given here.

What was measured:
Osteoclast [1] = assay: Anti-osteoclastogenesis in RANKL induced C57/BL6 mouse osteoclast assessed as formation of mature osteoclast measured at 1 uM by TRAP-staining based microscopic analysis relative to control; format: functional
Mus musculus = assay: Anti-osteoporosis activity in OVX induced osteoporosis C57BL/6 mouse model assessed as prevention of bone loss in femur at 20 mg/kg, ip daily for 4 weeks by micro computed tomographic analysis; format: functional, organism-based
BMDM [2] = assay: Anti-osteoclastogenesis in RANKL/M-CSF induced C57/BL6 mouse osteogenic differentiated BMDM assessed as decrease in pit area at 10 uM for 6 days by measuring fluorescence intensity using fluorescein amine labelled calcium plate method; format: functional, cell-based; settings: time 6.0 day
BMDM [3] = assay: Anti-osteoclastogenesis in RANKL/M-CSF induced C57/BL6 mouse osteogenic differentiated BMDM assessed as repression of F-actin ring at 10 uM spectra max i3x fluorescence plate reader based microscopic analysis; format: functional, cell-based
BMDM [4] = assay: Anti-osteoclastogenesis in RANKL/M-CSF induced C57/BL6 mouse osteogenic differentiated BMDM assessed as suppression of mRNA level of osteoclastogenesis related Atp6v0d2 gene expression measured for 0 to 4 days by qRT-PCR analysis; format: functional, cell-based; settings: time 0-4 day
BMDM [5] = assay: Anti-osteoclastogenesis in RANKL/M-CSF induced C57/BL6 mouse osteogenic differentiated BMDM assessed as suppression of mRNA level of osteoclastogenesis related Nfatc1 gene expression measured for 0 to 4 days by qRT-PCR analysis; format: functional, cell-based; settings: time 0-4 day
BMDM [6] = assay: Anti-osteoclastogenesis in RANKL induced C57/BL6 mouse osteogenic differentiated BMDM assessed as inhibition of c-src protein expression measured at 1 uM for 0 to 4 days by Western blotting analysis; format: functional, cell-based; settings: time 0-4 day
BMDM [7] = assay: Anti-osteoclastogenesis in RANKL induced C57/BL6 mouse osteogenic differentiated BMDM assessed as inhibition of protease Ctsk-protein expression measured at 1 uM for 0 to 4 days by Western blotting analysis; format: functional, cell-based; settings: time 0-4 day
BMDM [8] = assay: Anti-osteoclastogenesis in RANKL induced C57/BL6 mouse osteogenic differentiated BMDM assessed as inhibition of c-fos protein expression measured at 1 uM for 0 to 4 days by Western blotting analysis; format: functional, cell-based; settings: time 0-4 day
BMDM [9] = assay: Anti-osteoclastogenesis in RANKL/M-CSF induced C57/BL6 mouse osteogenic differentiated BMDM assessed as suppression of mRNA level of osteoclastogenesis related Mmp9 gene expression measured for 0 to 4 days by qRT-PCR analysis; format: functional, cell-based; settings: time 0-4 day
Osteoclast [10] = assay: Anti-osteoclastogenesis in RANKL induced C57/BL6 mouse osteoclast assessed as blocking of formation of multinucleated mature osteoclast incubated for 48 hrs; format: functional, cell-based; settings: dose 62.5-4000 nM
BMDM [11] = assay: Cytotoxicity in RANKL induced C57/BL6 mouse BMDM incubated at <4 uM for 48 hrs; format: functional, cell-based
BMDM [12] = assay: Anti-osteoclastogenesis in RANKL/M-CSF induced C57/BL6 mouse osteogenic differentiated BMDM assessed as expression of CRM1 in NAFTc1 translocation by immunofluorescence microscopy; format: functional, cell-based
BMDM [13] = assay: Anti-osteoclastogenesis in RANKL induced C57/BL6 mouse osteogenic differentiated BMDM assessed as inhibition of TRAF6 protein expression measured at 1 uM for 0 to 4 days by Western blotting analysis; format: functional, cell-based; settings: time 0-4 day
BMDM [14] = assay: Anti-osteoclastogenesis in RANKL induced C57/BL6 mouse osteogenic differentiated BMDM assessed as decreased NAFTc1 protein level in nucleus measured for 48 hrs by Western blotting analysis; format: functional, cell-based
BMDM [15] = assay: Cytotoxicity in RANKL induced C57/BL6 mouse mouse osteogenic differentiated BMDM assessed as blocking of formation of multinucleated mature osteoclast incubated at 4 uM for 48 hrs; format: functional, cell-based
BMDM [16] = assay: Anti-osteoclastogenesis in RANKL/M-CSF induced C57/BL6 mouse osteogenic differentiated BMDM assessed as repression of F-actin ring at 500 to 2000 nM spectra max i3x fluorescence plate reader based microscopic analysis; format: functional, cell-based; settings: dose 500-2000 nM
BMDM [17] = assay: Anti-osteoclastogenesis in RANKL induced C57/BL6 mouse osteogenic differentiated BMDM assessed as increased NAFTc1 protein level in cytoplasm measured for 48 hrs by Western blotting analysis; format: functional, cell-based
Osteoclast [18] = assay: Anti-osteoclastogenesis in human RANKL/human M-CSF induced human iPSC-derived macrophage assessed as inhibition of mature osteoclast differentiation measured for 10 days by TRAP staining assay; format: functional, cell-based; settings: time 10.0 day
Calvarial osteoblast = assay: Effect on osteogenesis in BMP2 stimulated mouse osteogenic differentiated calvaria primary osteoblast assessed as chane in percentage of ALP positive density at 0.125 to 16 uM with replacement of compound containing media daily for 9 days by ALP staining analysis; format: functional, cell-based; settings: dose 0.125-16 µM, time 9.0 day
BMDM [19] = assay: Anti-osteoclastogenesis in RANKL/M-CSF induced C57/BL6 mouse osteogenic differentiated BMDM assessed as suppression of mRNA level of osteoclastogenesis related Dc-stamp gene expression measured for 0 to 4 days by qRT-PCR analysis; format: functional, cell-based; settings: time 0-4 day
[20] = Toxicity in OVX induced osteoporosis C57BL/6 mouse model assessed as reduction of body weight at 20 mg/kg, ip daily for 4 weeks measured every week; format: organism-based; settings: in vivo, 672 h
BMDM [21] = assay: Anti-osteoclastogenesis in RANKL induced C57/BL6 mouse osteogenic differentiated BMDM assessed as inhibition of N-FkappaB protein expression measured at 1 uM for 0 to 4 days by Western blotting analysis; format: functional, cell-based; settings: time 0-4 day
BMDM [22] = assay: Anti-osteoclastogenesis in RANKL/M-CSF induced C57/BL6 mouse osteogenic differentiated BMDM assessed as expression of GAPDH in NAFTc1 translocation by immunofluorescence microscopy; format: functional, cell-based
Osteoclast [23] = assay: Anti-osteoclastogenesis in RANKL induced C57/BL6 mouse osteoclast assessed as inhibition of differentiation of bone marrow derived macrophage measured by TRAP-staining based microscopic analysis; format: functional, cell-based
BMDM [24] = assay: Anti-osteoclastogenesis in RANKL/M-CSF induced C57/BL6 mouse osteogenic differentiated BMDM assessed as suppression of mRNA level of osteoclastogenesis related Ctsk-gene expression measured for 0 to 4 days by qRT-PCR analysis; format: functional, cell-based; settings: time 0-4 day
BMDM [25] = assay: Anti-osteoclastogenesis in RANKL/M-CSF induced C57/BL6 mouse osteogenic differentiated BMDM assessed as decrease in pit area at 0.5 to 2 uM for 6 days by measuring fluorescence intensity using fluorescein amine labelled calcium plate method; format: functional, cell-based; settings: dose 0.5-2 µM, time 6.0 day
BMDM [26] = assay: Anti-osteoclastogenesis in RANKL/M-CSF induced C57/BL6 mouse osteogenic differentiated BMDM assessed as expression of GSK3beta in NAFTc1 translocation by immunofluorescence microscopy; format: functional, cell-based
BMDM [27] = assay: Anti-osteoclastogenesis in RANKL/M-CSF induced C57/BL6 mouse osteogenic differentiated BMDM assessed as suppression of mRNA level of osteoclastogenesis related Acp5 gene expression measured for 0 to 4 days by qRT-PCR analysis; format: functional, cell-based; settings: time 0-4 day
[28] = target: T1, Nuclear factor of activated T-cells, cytoplasmic 1 (Mus musculus) (UniProt O88942); assay: Inhibition of pronase mediated NFATc1 degradation in mouse osteogenic differentiated BMDM multi nuclear mature osteoclast at 50 uM for 1 hr by drug affinity responsive target stability analysis; format: cell-based
T1 sequence (whole entry): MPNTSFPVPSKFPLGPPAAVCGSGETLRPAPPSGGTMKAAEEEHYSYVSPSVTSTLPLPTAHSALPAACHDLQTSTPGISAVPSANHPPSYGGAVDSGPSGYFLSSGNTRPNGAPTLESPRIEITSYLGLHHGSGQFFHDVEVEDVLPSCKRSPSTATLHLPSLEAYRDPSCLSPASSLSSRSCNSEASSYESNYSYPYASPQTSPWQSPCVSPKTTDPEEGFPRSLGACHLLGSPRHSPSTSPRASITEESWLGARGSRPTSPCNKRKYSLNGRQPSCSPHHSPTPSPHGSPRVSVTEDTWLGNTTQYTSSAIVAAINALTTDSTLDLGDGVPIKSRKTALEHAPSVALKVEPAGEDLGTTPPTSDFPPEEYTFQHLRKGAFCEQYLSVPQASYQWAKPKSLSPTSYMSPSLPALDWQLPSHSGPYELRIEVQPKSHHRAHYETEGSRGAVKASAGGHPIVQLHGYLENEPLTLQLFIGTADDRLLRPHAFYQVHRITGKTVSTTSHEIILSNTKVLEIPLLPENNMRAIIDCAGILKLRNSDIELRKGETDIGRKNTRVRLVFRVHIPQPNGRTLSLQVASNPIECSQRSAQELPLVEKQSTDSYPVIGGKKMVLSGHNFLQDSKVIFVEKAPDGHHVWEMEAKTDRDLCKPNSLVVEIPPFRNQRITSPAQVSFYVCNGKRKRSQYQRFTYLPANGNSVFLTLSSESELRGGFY

BMDM [29] = assay: Anti-osteoclastogenesis in RANKL induced C57/BL6 mouse osteogenic differentiated BMDM assessed as inhibition of NFATc1 protein expression measured at 1 uM for 0 to 4 days by Western blotting analysis; format: functional, cell-based; settings: time 0-4 day
BMDM [30] = assay: Anti-osteoclastogenesis in RANKL/M-CSF induced C57/BL6 mouse osteogenic differentiated BMDM assessed as expression of calcineurin A in NAFTc1 translocation by immunofluorescence microscopy; format: functional, cell-based

## COc1ccc(OC(=O)c2cccc(N(CC(=O)Nc3ccccc3Sc3ccccc3)S(C)(=O)=O)c2)cc1
Osteoclast [1]
  inhibition at 1 µM: 25.7%

## CS(=O)(=O)N(CC(=O)Nc1ccccc1Sc1ccccc1)c1cccc(C(=O)O)c1
Osteoclast [1]
  inhibition at 1 µM: 0.11%

## O=C(CNc1cccc(C(=O)Oc2ccc(Cl)cc2)c1)Nc1ccccc1Sc1ccccc1
Osteoclast [1]
  inhibition at 1 µM: 43.2%

## CS(=O)(=O)N(CC(=O)Nc1ccccc1Sc1ccccc1)c1cccc(C(=O)Oc2ccc(Cl)cc2)c1
Osteoclast [1]
  inhibition at 1 µM: 23.9%

## CS(=O)(=O)N(CC(=O)Nc1ccccc1Sc1ccccc1)c1cccc(C(=O)Oc2cccc([N+](=O)[O-])c2)c1
Osteoclast [1]
  inhibition at 1 µM: 4.74%

## CC(=O)c1cccc(N(CC(=O)Nc2ccccc2Sc2ccccc2)S(C)(=O)=O)c1
Mus musculus
  Activity: inactive
BMDM [2]
  Activity: Active
Osteoclast [1]
  inhibition at 1 µM: 6.09%
BMDM [3]
  Activity: Active

## COC(=O)c1cccc(NCC(=O)Nc2ccccc2Sc2ccccc2)c1
BMDM [4]
  Activity: Active
BMDM [5]
  Activity: Active
BMDM [6]
  Activity: inactive
BMDM [7]
  Activity: Active
BMDM [8]
  Activity: inactive
BMDM [9]
  Activity: Active
Mus musculus
  Activity: Active
Osteoclast [10]
  Activity: Dose-Dependent Effect
BMDM [11]
  Activity: inactive
BMDM [12]
  Activity: inactive
BMDM [13]
  Activity: inactive
BMDM [14]
  Activity: Active
BMDM [15]
  Activity: Active
BMDM [16]
  Activity: Active
BMDM [17]
  Activity: Active
Osteoclast [18]
  Activity: Active
Calvarial osteoblast
  Activity: inactive
BMDM [19]
  Activity: Active
[20]
  Activity: Non-Toxic
BMDM [21]
  Activity: inactive
BMDM [22]
  Activity: inactive
Osteoclast [23]
  IC50: 323 nM
BMDM [24]
  Activity: Active
Osteoclast [1]
  inhibition at 1 µM: 74.5%
BMDM [25]
  Activity: Dose-Dependent Effect
BMDM [26]
  Activity: inactive
BMDM [27]
  Activity: Active
[28]
  inhibition: Active
BMDM [29]
  Activity: inactive
BMDM [30]
  Activity: inactive

## Cc1cccc(OC(=O)c2cccc(N(CC(=O)Nc3ccccc3Sc3ccccc3)S(C)(=O)=O)c2)c1
Osteoclast [1]
  inhibition at 1 µM: 19%

## CS(=O)(=O)N(CC(=O)Nc1ccccc1Sc1ccccc1)c1cccc(Cl)c1
Osteoclast [1]
  inhibition at 1 µM: 16.2%

## CC(C)(C)c1ccc(OC(=O)c2cccc(N(CC(=O)Nc3ccccc3Sc3ccccc3)S(C)(=O)=O)c2)cc1
Osteoclast [1]
  inhibition at 1 µM: 4.07%

## NCCCC(O)(P(=O)(O)O)P(=O)(O)O [ALENDRONIC ACID]
Osteoclast [1]
  inhibition at 1 µM: 30.9%

## COC(=O)c1cccc(N(CC(=O)Nc2ccccc2Sc2ccccc2)S(C)(=O)=O)c1
Osteoclast [1]
  inhibition at 1 µM: 8.13%

## COc1ccccc1OC(=O)c1cccc(NCC(=O)Nc2ccccc2Sc2ccccc2)c1
Osteoclast [1]
  inhibition at 1 µM: 52.3%

## CS(=O)(=O)N(CC(=O)Nc1ccccc1Sc1ccccc1)c1cccc(C(=O)Oc2ccc([N+](=O)[O-])cc2)c1
Osteoclast [1]
  inhibition at 1 µM: 15.3%

## Cc1ccccc1OC(=O)c1cccc(N(CC(=O)Nc2ccccc2Sc2ccccc2)S(C)(=O)=O)c1
Osteoclast [1]
  inhibition at 1 µM: 15.3%

## Cc1ccc(OC(=O)c2cccc(N(CC(=O)Nc3ccccc3Sc3ccccc3)S(C)(=O)=O)c2)cc1
Osteoclast [1]
  inhibition at 1 µM: 14.2%

## COc1ccc(OC(=O)c2cccc(NCC(=O)Nc3ccccc3Sc3ccccc3)c2)cc1
Osteoclast [1]
  inhibition at 1 µM: 50.9%

## COc1ccccc1OC(=O)c1cccc(N(CC(=O)Nc2ccccc2Sc2ccccc2)S(C)(=O)=O)c1
Osteoclast [1]
  inhibition at 1 µM: 20.3%

## CS(=O)(=O)N(CC(=O)Nc1ccccc1Sc1ccccc1)c1cccc(C(=O)Oc2ccccc2C#N)c1
Osteoclast [1]
  inhibition at 1 µM: 11.1%

## CS(=O)(=O)N(CC(=O)Nc1ccccc1Sc1ccccc1)c1cccc(C(=O)Oc2ccc3ccccc3c2)c1
Osteoclast [1]
  inhibition at 1 µM: 11.3%

## CS(=O)(=O)N(CC(=O)Nc1ccccc1Sc1ccccc1)c1cccc(C(=O)Oc2cccc3ccccc23)c1
Osteoclast [1]
  inhibition at 1 µM: 9.03%
